From patent EP1247803A2, “Indolinone compounds suitable for modulation of protein kinases” (Sugen, Inc., priority 1996, dated 1998)

Tests used:
FLK-1 receptor = molecular target: T1, FLK-1 receptor (Mus musculus, UniProt P35918); test: FLK-1 ELISA (kinase activity of the FLK-1 receptor in FLK-1/NIH3T3 cells, VEGF stimulated); assay type: cell-based
T1 construct: expressed in transfected cells; host or cells: NIH3T3 C7#3
Method in brief: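 NIH3T3 C7#3 cells expressing FLK-1 were seeded at 25.000 cells/well, serum-starved overnight in 0.1% FBS, then treated with compound for two hours at 37°C (final DMSO 0.5%) before VEGF stimulation. Receptor was captured on anti-rabbit IgG-coated ELISA plates bearing affinity-purified anti-FLK-1 antiserum.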

MET = MET biochemical kinase assay; design: species or system human; concentration or dose not given beside the values
Method in brief: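 Human MET was captured from cell lysates onto ELISA plates via goat anti-rabbit Fc and rabbit polyclonal antibody to the MET cytoplasmic domain. After washing, test compounds and kinase buffer with ATP and divalent metal ions were added. Phosphotyrosine was detected with HRP-conjugated anti-phosphotyrosine antibody and TMB colorimetric read-out.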

T1 sequence (P35918 20-1345): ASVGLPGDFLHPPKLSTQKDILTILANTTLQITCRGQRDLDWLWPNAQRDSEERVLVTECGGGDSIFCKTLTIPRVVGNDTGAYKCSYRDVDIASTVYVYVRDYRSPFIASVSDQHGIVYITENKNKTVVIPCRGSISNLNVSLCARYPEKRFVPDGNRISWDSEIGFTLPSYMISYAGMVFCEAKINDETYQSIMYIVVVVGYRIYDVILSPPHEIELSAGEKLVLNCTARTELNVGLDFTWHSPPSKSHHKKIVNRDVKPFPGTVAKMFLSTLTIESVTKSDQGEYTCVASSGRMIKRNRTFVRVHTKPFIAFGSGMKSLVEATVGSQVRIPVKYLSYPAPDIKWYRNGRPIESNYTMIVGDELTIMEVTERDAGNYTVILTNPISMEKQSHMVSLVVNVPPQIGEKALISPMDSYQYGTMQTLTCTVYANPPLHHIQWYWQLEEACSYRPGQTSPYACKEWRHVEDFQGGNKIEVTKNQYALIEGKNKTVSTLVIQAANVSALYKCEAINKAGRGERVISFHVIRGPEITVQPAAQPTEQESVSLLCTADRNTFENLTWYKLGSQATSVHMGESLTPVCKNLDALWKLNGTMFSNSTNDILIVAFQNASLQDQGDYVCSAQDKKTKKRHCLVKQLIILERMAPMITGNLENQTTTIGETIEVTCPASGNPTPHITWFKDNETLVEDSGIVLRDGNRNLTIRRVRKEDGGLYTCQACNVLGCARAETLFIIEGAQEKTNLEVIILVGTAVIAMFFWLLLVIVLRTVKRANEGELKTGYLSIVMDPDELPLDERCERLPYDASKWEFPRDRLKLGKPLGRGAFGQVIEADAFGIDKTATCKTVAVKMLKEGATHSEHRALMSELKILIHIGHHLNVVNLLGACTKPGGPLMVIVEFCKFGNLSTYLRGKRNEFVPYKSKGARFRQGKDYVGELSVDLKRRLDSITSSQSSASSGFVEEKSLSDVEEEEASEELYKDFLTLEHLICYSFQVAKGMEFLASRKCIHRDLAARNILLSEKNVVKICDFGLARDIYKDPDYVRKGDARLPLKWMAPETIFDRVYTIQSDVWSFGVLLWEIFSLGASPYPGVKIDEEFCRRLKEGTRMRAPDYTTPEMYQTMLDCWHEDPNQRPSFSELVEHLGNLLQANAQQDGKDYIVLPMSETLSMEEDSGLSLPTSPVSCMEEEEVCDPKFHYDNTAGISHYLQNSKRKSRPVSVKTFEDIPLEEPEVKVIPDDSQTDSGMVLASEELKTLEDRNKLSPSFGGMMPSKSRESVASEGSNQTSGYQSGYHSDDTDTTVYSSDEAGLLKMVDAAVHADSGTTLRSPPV

Row | SMILES | Fik Kinase %Inhibition (FLK-1 receptor) | Met Kinase % Inhibition (MET)
1 | Cc1ccc(C=C2C(=O)Nc3ccc(I)cc32)s1 [10717/B07] | -18.3% | 90.0%
2 | O=C1Nc2ccc(I)cc2C1=Cc1ccc(Br)cc1 [10717/B08] | -0.9% | 88.8%
3 | O=C1Nc2ccc(I)cc2C1=Cc1ccc[nH]1 [10717/B09] | -40.7% | 88.8%
4 | COc1cccc(O)c1C=C1C(=O)Nc2ccc(I)cc21 [10717/B10] | -2.3% | 56.1%
5 | Cc1[nH]c(C=C2C(=O)Nc3ccc(I)cc32)c(Br)c1Br [10717/B11] | 11.4% | 91.0%
6 | CCOc1ccccc1C=C1C(=O)Nc2ccc(Br)c(C)c21 [10717/C02] | 4.1% | 29.7%
7 | Cc1c(Br)ccc2c1C(=Cc1cccs1)C(=O)N2 [10717/C03] | -7.7% | 25.3%
8 | Cc1c(Br)ccc2c1C(=Cc1cccc([N+](=O)[O-])c1)C(=O)N2 [10719/C10] | 11.8% | 7.9%
9 | Cc1c(Br)ccc2c1C(=Cc1ccc(F)cc1C(F)(F)F)C(=O)N2 [10719/C11] | 9.9% | -5.1%
10 | CCOc1ccc(C=C2C(=O)Nc3ccc(S(=O)(=O)NC)cc32)cc1OC [10719/D02] | 9.7% | 27.5%
11 | CNS(=O)(=O)c1ccc2c(c1)C(=Cc1ccc(O)c(O)c1)C(=O)N2 [10719/D03] | 4.8% | 93.2%
12 | CNS(=O)(=O)c1ccc2c(c1)C(=Cc1ccc(OC)cc1OC)C(=O)N2 [10719/D04] | 27.8% | 28.9%
13 | CCc1c(C)[nH]c(C=C2C(=O)Nc3ccc(S(=O)(=O)NC)cc32)c1C [10719/D05] | 16.3% | 71.8%
14 | CNS(=O)(=O)c1ccc2c(c1)C(=Cc1c(OC)cc(OC)cc1OC)C(=O)N2 [10719/D06] | 25.8% | 11.2%
15 | CNS(=O)(=O)c1ccc2c(c1)C(=Cc1ccc(O)cc1)C(=O)N2 [10719/D07] | -123.5% | 41.5%
16 | CNS(=O)(=O)c1ccc2c(c1)C(=Cc1ccc(N(C)C)cc1)C(=O)N2 [10719/D08] | 8.2% | 45.2%
17 | CNS(=O)(=O)c1ccc2c(c1)C(=Cc1ccc(F)cc1Cl)C(=O)N2 [10719/D09] | 7.8% | 13.0%
18 | CNS(=O)(=O)c1ccc2c(c1)C(=Cc1cccc([N+](=O)[O-])c1)C(=O)N2 [10719/D10] | 8.3% | 22.3%
19 | CCOc1ccc(C=C2C(=O)Nc3ccc(S(=O)(=O)Nc4ccc(C(F)(F)F)cc4)cc32)cc1OC [10719/E02] | 26.1% | 35.7%
20 | O=C1Nc2ccc(S(=O)(=O)Nc3ccc(C(F)(F)F)cc3)cc2C1=Cc1ccc(O)c(O)c1 [10719/E03] | 17.1% | 87.2%
21 | COc1ccc(C=C2C(=O)Nc3ccc(S(=O)(=O)Nc4ccc(C(F)(F)F)cc4)cc32)c(OC)c1 [10719/E04] | 31.2% | 3.1%
22 | CCc1c(C)[nH]c(C=C2C(=O)Nc3ccc(S(=O)(=O)Nc4ccc(C(F)(F)F)cc4)cc32)c1C [10719/E05] | 21.5% | 39.0%
23 | COc1cc(OC)c(C=C2C(=O)Nc3ccc(S(=O)(=O)Nc4ccc(C(F)(F)F)cc4)cc32)c(OC)c1 [10719/E06] | 17.1% | -4.5%
24 | O=C1Nc2ccc(S(=O)(=O)Nc3ccc(C(F)(F)F)cc3)cc2C1=Cc1ccc(O)cc1 [10719/E07] | 26.7% | 55.5%
25 | CN(C)c1ccc(C=C2C(=O)Nc3ccc(S(=O)(=O)Nc4ccc(C(F)(F)F)cc4)cc32)cc1 [10719/E08] | 21.8% | 80.0%
26 | O=C1Nc2ccc(S(=O)(=O)Nc3ccc(C(F)(F)F)cc3)cc2C1=Cc1ccc(F)cc1Cl [10719/E09] | 13.5% | 36.1%

Row | SMILES | Fik Kinase %Inhibition (FLK-1 receptor) | Met Kinase % Inhibition (MET)
27 | O=C1Nc2ccc(S(=O)(=O)Nc3ccc(C(F)(F)F)cc3)cc2C1=Cc1cccc([N+](=O)[O-])c1 [10719/E10] | 17.6% | 40.2%
28 | O=C1Nc2ccc(S(=O)(=O)Nc3ccc(C(F)(F)F)cc3)cc2C1=Cc1ccc(F)cc1C(F)(F)F [10719/E11] | 26.3% | 28.5%
29 | CCOc1ccc(C=C2C(=O)Nc3ccc(S(=O)(=O)N4CCOCC4)cc32)cc1OC [10719/F02] | 28.6% | 28.1%
30 | O=C1Nc2ccc(S(=O)(=O)N3CCOCC3)cc2C1=Cc1ccc(O)c(O)c1 [10719/F03] | 11.2% | 89.5%
31 | COc1ccc(C=C2C(=O)Nc3ccc(S(=O)(=O)N4CCOCC4)cc32)c(OC)c1 [10719/F04] | 26.6% | 3.3%
32 | CCc1c(C)[nH]c(C=C2C(=O)Nc3ccc(S(=O)(=O)N4CCOCC4)cc32)c1C [10719/F05] | 20.7% | 63.1%
33 | COc1cc(OC)c(C=C2C(=O)Nc3ccc(S(=O)(=O)N4CCOCC4)cc32)c(OC)c1 [10719/F06] | 13.5% | -22.0%
34 | O=C1Nc2ccc(S(=O)(=O)N3CCOCC3)cc2C1=Cc1ccc(O)cc1 [10719/F07] | 18.7% | 36.7%
35 | CN(C)c1ccc(C=C2C(=O)Nc3ccc(S(=O)(=O)N4CCOCC4)cc32)cc1 [10719/F08] | 15.1% | 75.7%
36 | O=C1Nc2ccc(S(=O)(=O)N3CCOCC3)cc2C1=Cc1ccc(F)cc1Cl [10719/F09] | -6.5% | 19.2%
37 | O=C1Nc2ccc(S(=O)(=O)N3CCOCC3)cc2C1=Cc1cccc([N+](=O)[O-])c1 [10719/F10] | 10.4% | 30.8%
38 | O=C1Nc2ccc(S(=O)(=O)N3CCOCC3)cc2C1=Cc1ccc(F)cc1C(F)(F)F [10719/F11] | 11.6% | 8.7%
39 | CCOc1ccc(C=C2C(=O)Nc3ccc(CCCl)cc32)cc1OC [10719/G02] | 27.3% | -2.4%
40 | O=C1Nc2ccc(CCCl)cc2C1=Cc1ccc(O)c(O)c1 [10719/G03] | -25.8% | 87.6%
41 | COc1ccc(C=C2C(=O)Nc3ccc(CCCl)cc32)c(OC)c1 [10719/G04] | 11.5% | -8.2%
42 | CCc1c(C)[nH]c(C=C2C(=O)Nc3ccc(CCCl)cc32)c1C [10719/G05] | 18.0% | 15.9%
43 | COc1cc(OC)c(C=C2C(=O)Nc3ccc(CCCl)cc32)c(OC)c1 [10719/G06] | 23.2% | -18.1%
44 | O=C1Nc2ccc(CCCl)cc2C1=Cc1ccc(O)cc1 [10719/G07] | 20.1% | 24.0%
45 | CN(C)c1ccc(C=C2C(=O)Nc3ccc(CCCl)cc32)cc1 [10719/G08] | 3.2% | 39.4%
46 | O=C1Nc2ccc(CCCl)cc2C1=Cc1ccc(F)cc1Cl [10719/G09] | 18.1% | 1.3%
47 | O=C1Nc2ccc(CCCl)cc2C1=Cc1cccc([N+](=O)[O-])c1 [10719/G10] | 9.7% | 35.5%
48 | O=C1Nc2ccc(CCCl)cc2C1=Cc1ccc(F)cc1C(F)(F)F [10719/G11] | 6.9% | 24.0%
49 | O=C1Nc2c(Br)cc(Br)cc2C1=Cc1c(F)cc(F)cc1F [10720/A02] | 4.7% | 45.2%
50 | COc1cc(O)ccc1C=C1C(=O)Nc2c(Br)cc(Br)cc21 [10720/A03] | 17.7% | 58.2%
51 | COc1ccc(C=C2C(=O)Nc3c(Br)cc(Br)cc32)cc1OC [10720/A04] | 12.3% | 62.3%
